The values below come from patent US9642859B2, “Use of capsazepine and analogs thereof to treat cancer” (THE BOARD OF REGENTS OF THE UNIVERSITY OF TEXAS SYSTEM, priority 2012, dated 2017).

The test system of data set [1] is OSCC cell lines (HSC3, SCC4, and SCC25). As to the kind of experiment: Calcium imaging of OSCC cell lines. It is filed as cell-based, human. The settings on record: capsazepine 30 μM (cytotoxic dose). On the procedure: FIGS. 1J-1 to 1J-2. FIGS. 1J-1(a) to (c): […] FIGS. 1J-2(a) to (c): […] Arrow indicates time point when treatment was added. […] This was due to the toxic effects of this high capsaicin concentration which permeablized the cell membrane allowing calcium to flow freely […] the cell. This was not reversed by capsazepine. […] These finding confirm that activation of TRPV1 is not the mechanism by which cell death is induced using capsazepine.

For data set [2], the system named is HSC3 xenografts. Description: OSCC mouse xenograft model, HSC3. The data set is classed as in vivo, athymic nude (nu/nu) mice. The settings on record: 40 μg CPZ intra-tumoral every other day. An excerpt: Animals. Six week-old female athymic nude (nu/nu) mice were purchased from HARLAN Laboratories (Indianapolis, Ind.) and used in a laminar air-flow cabinet under pathogen-free conditions. They were provided with a 12-h light/dark schedule at controlled temperature and humidity with food and water ad libitum. Mice were allowed to acclimate for at least one week prior to the start of the experiments. All procedures were approved by the UTHSCSA (University of Texas Health Science Center—San Antonio) Institutional Animal Care and Use Committee.
OSCC Mouse Xenograft Model. Mice were injected subcutaneously in the right flank with 2×10^6 HSC3, SCC4, or SCC25 cells in 0.1 ml of sterile phosphate buffered saline (each of these cell lines is published in scientific literature). Four weeks post-inoculation, tumors had grown to an average volume of 110 mm^3. Mice were then divided into two experimental groups of five animals each, which received the following treatments as intra-tumoral injections: group A, vehicle control (7% DMSO in sterile saline); group B, CPZ treatment (40 μg). The injections were repeated every other day and for a total of at least 14 days.
Treatments. […] Mice were monitored daily for tumor growth, cachexia, and weight loss. Tumor volumes and body weight were recorded every other day. Tumor volumes were calculated by the formula: (4π/3)×(w/2)2×(l/2), where w=width and l=length. […]

Data set [3] relates to HSC3. Description: Additional cell proliferation assay, HSC3. The data set is classed as cell-based, human. The settings on record: HSC3, 24 hour treatment. An excerpt: (§1) Observed reductions in cell proliferation in these additional in vitro studies are as follows: SCC4, 40%; HSC3, 50%; SCC25, 80%; Cal27, 15%; MDA231, 56%; and LnCap, 37%.
Data set [4] concerns SCC4. Description: Cell cycle analysis by DNA profile FACS, SCC4. The data set is classed as cell-based, human. The settings on record: 24 hours. The protocol:
In particular, Table 1 provides additional cell cycle distribution data of OSCC cells (%) treated with 0 μM, 30 μM, 60 μM, or 90 μM CPZ for 24 hours. Data for OSCC cell lines HSC3, SCC4, and SCC25 are also provided in diagrams of FIGS. 1G-1, 1G-2, and 1G-3, respectively.

In data set [5] the test system is PC3 prostate cancer cells. As to the kind of experiment: Cell viability assay of PC3 cells with and without NAC. It is filed as cell-based, human. The settings on record: PC3 prostate cancer cells, 24 h.
Data set [6] has as its system SCC25. As to the kind of experiment: Additional cell proliferation assay, SCC25. It is filed as cell-based, human. The settings on record: SCC25, 24 hour treatment.
Text: as §1

The nature of data set [7]: Liver and kidney function tests of tumor bearing mice. It is filed as in vivo. Conditions: 40 μg CPZ intra-tumoral every other day over 14 days. The protocol:
FIG. 14. Liver and kidney function tests of tumor bearing mice following two week treatment with either vehicle control (Control) or 40 μg CPZ in 40 μl Veh medium (1 μg/μl) injected directly into tumor every other day over 14 days (CPZ).
Treatments. CPZ (5 mg) was diluted in 250 μl of 100% DMSO to yield a final concentration of 20 μg/μl of stock solution. Stock solution (100 m) was subsequently diluted in 7% DMSO in sterile saline generating a final concentration of 1 μg/μl. A total of 40 μg in 40 μl was injected intra-tumorally. Control xenografts were injected intra-tumorally with 40 μl of vehicle control (7% DMSO). Mice were monitored daily for tumor growth, cachexia, and weight loss. Tumor volumes and body weight were recorded every other day. Tumor volumes were calculated by the formula: (4π/3)×(w/2)2×(l/2), where w=width and l=length. Measurements were made using a digital caliper. […]
At the conclusion of the experiment, serum was collected for liver and kidney function analysis. […] Tumors were analyzed histologically using H&E (hematoxylin and eosin) and TUNEL (terminal deoxyribonucleotidyl transferase-mediated dUTP nick end labeling) staining for detection of DNA fragmentation associated with apoptosis, and apoptotic figures were quantified. […]

In data set [8] the test system is prostate cancer cell line LnCap. Description: Additional cell proliferation assay, LnCap. It is filed as cell-based. The settings on record: 24 hour treatment.
Text: as §1

Data set [9] concerns OSCC cell lines (HSC3, SCC4, and SCC25).
Method: Cell viability assays reported as % of vehicle control (n=3). […] VEH=delivery vehicle control without CAP or CPZ. *p<0.05, ***p<0.001.
FIG. 1H-1: Cell viability assays of OSCC cell lines treated with 30 μM CPZ alone or in combination with 10 mM N-Acetyl-L-Cysteine (NAC) for 24 h (n=4); ***p<0.001.
Human OSCC Cell Lines. The human OSCC cell lines MDA231, PS3, SCC4 and SCC25 were obtained from ATCC (American Type Culture Collection, Rockville, Md.). The HSC3 cell line was obtained from the Japanese Cell Resource Bank (Osaka, Japan). […] Cells were maintained in DMEM (GIBCO, Carlsbad, Calif.) supplemented with 10% FBS at 37° C. in 5% CO2. Both cell lines were derived from primary OSCC tumors from the tongues of male patients in their fifth generation of life. Data regarding pertinent medical history, treatment, outcome of care and recurrence were not available.
Statistical Analysis. Statistical analyses were performed using GraphPad Prism4 (San Diego, Calif.). Experiments were performed in triplicate and results are represented as means+SD except when indicated. […] Cytotoxicity assays of cell viability were analyzed by one-way ANOVA and Bonferroni's post-hoc test (n=3).
Data set [10] relates to CFA-induced mechanical hyperalgesia. The settings on record: guinea pigs; cited from earlier work.

As for `Oc1cc2c(cc1O)CN(C(=S)NCCc1ccc(Cl)cc1)CCC2` [CPZ, 2-[2-(4-chlorphenyl)ethylamino-thiocarbonyl]-7,8-dihydroxy-2,3,4,5-tetrahydro-1H-2-benzazepine], the intra-cellular calcium levels entry in data set [1] is recorded as “had no effect on intra-cellular calcium levels”. Further, the healing of xenografts entry in data set [2] is listed as “complete healing in some treated HSC3 xenografts”. Further, the tumor volume entry in data set [2] (two weeks, p<0.05) is listed as “significant reduction in tumor volume”. Further, the “reduction in cell proliferation” value is recorded as 50% in data set [3], 80% in data set [6] and 37% in data set [8]. Also, the G0/G1 is given as 70.77% in [4] (SCC4, CPZ 30 μM); 21.03% in data set [4] (SCC4, CPZ 60 μM); 15.61% in data set [4] (SCC4, CPZ 90 μM). The G2/M in data set [4] (SCC4, CPZ 30 μM) is on record as 12.14%; in data set [4] (SCC4, CPZ 60 μM) it was 24.21%; in data set [4] (SCC4, CPZ 90 μM) it was 31.57%. The S is 15.08% in [4] (SCC4, CPZ 30 μM); 21.04% in data set [4] (SCC4, CPZ 60 μM); 24.83% in data set [4] (SCC4, CPZ 90 μM). In addition, the SubG1 in data set [4] (SCC4, CPZ 30 μM) amounted to 2.01%; in [4] (SCC4, CPZ 60 μM) it was 33.72%; in data set [4] (SCC4, CPZ 90 μM) it was 27.99%. Further, the cytotoxicity result in [5] and in [9] was “significant dose dependent cytotoxicity” each time. In addition, in data set [7], the “liver and kidney function” value is recorded as “No negative effects on liver or kidney function were detected”. In addition, the CFA-induced mechanical hyperalgesia entry in data set [10] was “Significantly reversed”.
